Holding throughout (assay type): cell-based
In assay [1] the target is EGFR (A767_dupASV) expressing Ba/F3 stable cell line (Homo sapiens, UniProt P00533, DUP767-769, cells depend on it). The assay is described as follows: Cellular proliferation (Alamar Blue) assay, EGFR A767_dupASV Ba/F3. The following applies: EGFR A767_dupASV Ba/F3, 72 hr, read-out: A767 IC50. How it is done: (§1) Example 3: Cellular Proliferation (Alamar Blue) Assays
(§2) • 1. EGFR(D770_N771insSVD) expressing Ba/F3 stable cell line • 2. EGFR (A767_dupASV) expressing Ba/F3 stable cell line • 3. A431 cells • 4. BTER2 (A775_G776insYVMA) expressing Ba/F3 stable cell line • 5. BTER2 (WT) expressing Ba/F3 stable cell line • 6. BT-474 cells
(§3) • 1. Seed cells at 5000 for A431 and 15,000 cells for Ba/F3 in 100 μL/well in complete media (for A431: DMEM with 10% FBS and for Ba/F3 cells: RPMI with 10% FBS) in 96-well tissue culture plate. Leave outer wells without cells for background measurements. Incubate at 37 degree Celsius in 5% CO2 humidified incubator for 16-18 hours. • 2. Add 0.025 ml of 5× concentration compound dilution or DMSO control. Final compound concentration range is 10-0.0005 μM prepared in 3-fold serial dilutions. Incubate for 72 hr at 37 degree Celsius in […] humidified incubator. • 3. Add 0.0125 mL Alamar Blue™ reagent to each well with multi-channel pipette and tap gently on each side of the plate to mix. Incubate for 3 hours at 37 degree Celsius in […] humidified incubator. • 4. Read plates on fluorescence reader (Tecan Spark Control, Device: Spark, Serial #: 1801006040) at 540 nm excitation, 590 nm emission wavelength. • 5. Data analysis was performed using XLfit 5.5.0.5.
On the technique in general: Resazurin is reduced to fluorescent resorufin, in cell work by metabolically active cells.

A further assay relates to A431 cells. The assay is described as follows: Cellular proliferation (Alamar Blue) assay, A431. The settings on record: Homo sapiens. The protocol:
as §1, §2, §3

For assay [2], the target named is EGFR(D770_N771insSVD) expressing Ba/F3 stable cell line (Homo sapiens, UniProt P00533, DUP768-770, cells depend on it). The assay can be described thus: Cellular proliferation (Alamar Blue) assay, EGFR D770_N771insSVD Ba/F3. The settings on record: EGFR D770_N771insSVD Ba/F3, 72 hr, read-out: D770 IC50. How it is done: as §1, §2, §3
EGFR(D770_N771insSVD) expressing Ba/F3 stable cell line, sequence (P00533 with tags, fused parts or gaps DUP768-770): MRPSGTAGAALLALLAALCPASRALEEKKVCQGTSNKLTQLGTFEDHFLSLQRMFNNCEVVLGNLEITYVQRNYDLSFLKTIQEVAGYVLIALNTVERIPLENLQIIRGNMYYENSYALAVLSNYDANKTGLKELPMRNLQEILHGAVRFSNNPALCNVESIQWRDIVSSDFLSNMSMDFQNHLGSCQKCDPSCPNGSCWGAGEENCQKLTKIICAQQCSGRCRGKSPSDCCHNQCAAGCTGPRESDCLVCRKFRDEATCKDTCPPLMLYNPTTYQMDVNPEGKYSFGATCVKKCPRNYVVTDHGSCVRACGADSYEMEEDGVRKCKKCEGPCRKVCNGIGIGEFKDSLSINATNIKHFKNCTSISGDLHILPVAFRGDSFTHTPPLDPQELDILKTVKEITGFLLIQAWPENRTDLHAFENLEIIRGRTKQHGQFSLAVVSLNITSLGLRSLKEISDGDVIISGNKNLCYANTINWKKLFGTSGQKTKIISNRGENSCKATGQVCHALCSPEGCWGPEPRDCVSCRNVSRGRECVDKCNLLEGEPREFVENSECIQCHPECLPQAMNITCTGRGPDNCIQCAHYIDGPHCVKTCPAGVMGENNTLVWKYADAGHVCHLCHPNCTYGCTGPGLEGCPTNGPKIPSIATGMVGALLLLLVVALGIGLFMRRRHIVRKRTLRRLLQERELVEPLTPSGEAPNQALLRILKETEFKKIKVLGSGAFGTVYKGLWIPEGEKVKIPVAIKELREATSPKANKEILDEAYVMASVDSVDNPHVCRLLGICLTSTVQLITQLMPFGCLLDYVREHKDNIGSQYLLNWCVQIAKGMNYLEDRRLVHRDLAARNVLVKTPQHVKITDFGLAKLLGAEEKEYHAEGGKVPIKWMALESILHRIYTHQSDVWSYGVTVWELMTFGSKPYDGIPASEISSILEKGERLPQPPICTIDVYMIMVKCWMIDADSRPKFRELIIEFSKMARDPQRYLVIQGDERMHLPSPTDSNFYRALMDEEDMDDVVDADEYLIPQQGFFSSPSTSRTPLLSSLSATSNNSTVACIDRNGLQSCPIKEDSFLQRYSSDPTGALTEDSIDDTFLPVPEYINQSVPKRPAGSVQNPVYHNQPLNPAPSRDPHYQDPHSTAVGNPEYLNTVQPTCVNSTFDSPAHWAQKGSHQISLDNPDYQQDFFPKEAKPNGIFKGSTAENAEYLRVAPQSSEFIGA
The mark [3] stands for this setting: A-431, 72 h, read-out: A431 IC50 (nM).
Setting [4] is: A-431, A431 cells, 72 hr, Alamar Blue, read-out: A431 IC50.

For orientation: IC50 means the concentration that gives 50% inhibition.

Read-outs that look alike come from different tables or passages of the source. A value given as a limit tells only on which side of the number the result lay.

EGFR (A767_dupASV) expressing Ba/F3 stable cell line, sequence (P00533 with tags, fused parts or gaps DUP767-769): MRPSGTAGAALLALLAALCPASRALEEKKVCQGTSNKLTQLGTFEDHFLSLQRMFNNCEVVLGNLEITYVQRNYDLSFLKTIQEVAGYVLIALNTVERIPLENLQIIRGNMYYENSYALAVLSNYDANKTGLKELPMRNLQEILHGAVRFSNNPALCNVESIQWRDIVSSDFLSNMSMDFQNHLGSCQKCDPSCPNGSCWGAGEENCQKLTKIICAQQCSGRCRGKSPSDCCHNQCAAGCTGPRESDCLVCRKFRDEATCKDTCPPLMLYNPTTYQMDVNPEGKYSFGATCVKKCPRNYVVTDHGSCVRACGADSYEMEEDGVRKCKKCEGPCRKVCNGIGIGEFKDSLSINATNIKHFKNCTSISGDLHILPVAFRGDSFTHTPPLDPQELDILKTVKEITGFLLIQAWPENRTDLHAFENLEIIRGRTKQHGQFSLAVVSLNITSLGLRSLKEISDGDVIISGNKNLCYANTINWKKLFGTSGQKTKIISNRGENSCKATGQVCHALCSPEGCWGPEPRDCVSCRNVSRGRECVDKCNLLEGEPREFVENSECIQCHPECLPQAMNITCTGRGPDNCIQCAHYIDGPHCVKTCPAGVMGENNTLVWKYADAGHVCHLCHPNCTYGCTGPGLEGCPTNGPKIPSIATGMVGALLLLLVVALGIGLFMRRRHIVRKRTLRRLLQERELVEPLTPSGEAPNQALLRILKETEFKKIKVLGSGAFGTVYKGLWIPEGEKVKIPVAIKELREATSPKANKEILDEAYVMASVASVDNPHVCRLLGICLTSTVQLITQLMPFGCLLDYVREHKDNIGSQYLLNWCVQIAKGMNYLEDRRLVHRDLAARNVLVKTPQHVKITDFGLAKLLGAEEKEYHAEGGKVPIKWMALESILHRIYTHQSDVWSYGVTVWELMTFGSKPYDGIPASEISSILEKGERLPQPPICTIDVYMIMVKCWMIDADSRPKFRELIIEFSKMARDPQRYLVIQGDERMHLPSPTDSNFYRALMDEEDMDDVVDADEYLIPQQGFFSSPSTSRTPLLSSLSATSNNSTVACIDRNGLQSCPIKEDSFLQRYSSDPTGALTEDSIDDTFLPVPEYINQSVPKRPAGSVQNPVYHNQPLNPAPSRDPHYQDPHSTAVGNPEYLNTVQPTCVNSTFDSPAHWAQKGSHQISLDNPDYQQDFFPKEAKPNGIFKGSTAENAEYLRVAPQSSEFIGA

As for `C[C@H](c1ccccc1)N1Cc2cnc(Nc3cnn(C)c3)nc2N(c2cccc(NC(=O)/C=C/CN(C)C)c2)C1=O` (single isomer, unassigned) [Compound 133], the GI50 was found to be 1.12 µM in assay [1] and 2.69 µM in assay [2]. The IC50 in the assay on A431 cells (setting [3]) was at least 10000 nM.

As to `C[C@@H](c1ccccc1)N1Cc2cnc(Nc3cnn(C)c3)nc2N(c2cccc(NC(=O)/C=C/CN(C)C)c2)C1=O` (single isomer, unassigned) [Compound 134], the GI50 turned out to be 0.109 µM in assay [1] and 0.103 µM in assay [2]. In addition, the IC50 with A431 cells (setting [3]) was at least 10000 nM.

Consider `CN(C)C/C=C/C(=O)Nc1cccc(N2C(=O)N(Cc3ccccc3)Cc3cnc(Nc4ccn(C)n4)nc32)c1` [Compound 52, (E)-N-(3-(3-benzyl-7-((1-methyl-1H-pyrazol-3-yl)amino)-2-oxo-3,4-dihydropyrimido[4,5-d]pyrimidin-1(2H)-yl)phenyl)-4-(dimethylamino)but-2-enamide], for which the GI50 turned out to be 0.244 µM in assay [1] and 0.341 µM in assay [2]. Also, the IC50 in the assay on A431 cells (setting [4]) was at least 10000 nM.

`CN(C)C/C=C/C(=O)Nc1cccc(N2C(=O)N(Cc3ccccc3)Cc3cnc(Nc4cnc5c(cnn5C)c4)nc32)c1` [Compound 53, (E)-N-(3-(3-benzyl-7-((1-methyl-1H-pyrazolo[3,4-b]pyridin-5-yl)amino)-2-oxo-3,4-dihydropyrimido[4,5-d]pyrimidin-1(2H)-yl)phenyl)-4-(dimethylamino)but-2-enamide]: the GI50 in assay [1] is 0.474 µM; in assay [2], 1.05 µM. For the same compound, the IC50 in the assay with A431 cells (setting [4]) is at least 10000 nM.

On to `CN(C)C/C=C/C(=O)Nc1cccc(N2C(=O)N(Cc3ccccc3)Cc3cnc(Nc4ccc(N5CCOCC5)nc4)nc32)c1` [Compound 54, (E)-N-(3-(3-benzyl-7-((6-morpholinopyridin-3-yl)amino)-2-oxo-3,4-dihydropyrimido[4,5-d]pyrimidin-1(2H)-yl)phenyl)-4-(dimethylamino)but-2-enamide], for which the GI50 in assay [1] stood at 0.224 µM; in assay [2], 0.337 µM. In the assay on A431 cells (setting [4]), the IC50 is at least 10000 nM.

Turning to `CN(C)C/C=C/C(=O)Nc1cccc(N2C(=O)N(Cc3ccccc3)Cc3cnc(Nc4cnc(N5CCOCC5)nc4)nc32)c1` [Compound 55, (E)-N-(3-(3-benzyl-7-((2-morpholinopyrimidin-5-yl)amino)-2-oxo-3,4-dihydropyrimido[4,5-d]pyrimidin-1(2H)-yl)phenyl)-4-(dimethylamino)but-2-enamide], the GI50 in assay [1] was 1.67 µM; in assay [2], 3.86 µM. In the assay on A431 cells (setting [4]), the IC50 is at least 10000 nM.

For the compound `COc1nn(C)cc1Nc1ncc2c(n1)N(c1cccc(NC(=O)/C=C/CN(C)C)c1)C(=O)N(Cc1ccccc1)C2` [Compound 56, (E)-N-(3-(3-benzyl-7-((3-methoxy-1-methyl-1H-pyrazol-4-yl)amino)-2-oxo-3,4-dihydropyrimido[4,5-d]pyrimidin-1(2H)-yl)phenyl)-4-(dimethylamino)but-2-enamide], the GI50 turned out to be 0.065 µM in assay [1] and 0.107 µM in assay [2]. The IC50 with A431 cells (setting [4]) is at least 10000 nM.

For `CN(C)C/C=C/C(=O)Nc1cccc(N2C(=O)N(Cc3ccc(F)cc3)Cc3cnc(Nc4cn(C)nc4Cl)nc32)c1` [Compound 57, (E)-N-(3-(7-((3-chloro-1-methyl-1H-pyrazol-4-yl)amino)-3-(4-fluorobenzyl)-2-oxo-3,4-dihydropyrimido[4,5-d]pyrimidin-1(2H)-yl)phenyl)-4-(dimethylamino)but-2-enamide], the GI50 in assay [1] stood at 0.115 µM; in assay [2], 0.476 µM. In addition, the IC50 in the assay with A431 cells (setting [4]) is at least 10000 nM.

As for `CN(C)C/C=C/C(=O)Nc1cccc(N2C(=O)N(Cc3ccccc3)Cc3cnc(Nc4cnoc4)nc32)c1` [Compound 58, (E)-N-(3-(3-benzyl-7-(isoxazol-4-ylamino)-2-oxo-3,4-dihydropyrimido[4,5-d]pyrimidin-1(2H)-yl)phenyl)-4-(dimethylamino)but-2-enamide], the GI50 in assay [1] came out at 0.801 µM; in assay [2] it was 2.11 µM. Also, in the assay with A431 cells (setting [4]), the concentration for half-maximal inhibition (IC50) was at least 10000 nM.

For `CN(C)C/C=C/C(=O)Nc1cccc(N2C(=O)N(Cc3ccccc3)Cc3cnc(Nc4cnc(N5CCN(C)CC5)nc4)nc32)c1` [Compound 59, (E)-N-(3-(3-benzyl-7-((2-(4-methylpiperazin-1-yl)pyrimidin-5-yl)amino)-2-oxo-3,4-dihydropyrimido[4,5-d]pyrimidin-1(2H)-yl)phenyl)-4-(dimethylamino)but-2-enamide], the GI50 in assay [1] is 8.66 µM; in assay [2], at least 10 µM. For the same compound, in the assay on A431 cells (setting [4]), the half-inhibitory concentration (IC50) was at least 10000 nM.

Regarding `Cc1nocc1Nc1ncc2c(n1)N(c1cccc(NC(=O)/C=C/CN(C)C)c1)C(=O)N(Cc1ccccc1)C2` [Compound 60, (E)-N-(3-(3-benzyl-7-((3-methylisoxazol-4-yl)amino)-2-oxo-3,4-dihydropyrimido[4,5-d]pyrimidin-1(2H)-yl)phenyl)-4-(dimethylamino)but-2-enamide], the values for the GI50 in assay [1] and in assay [2] were 1.7 µM and 2.39 µM, respectively. In the assay with A431 cells (setting [4]), the IC50 was at least 10000 nM.

As for `CN(C)C/C=C/C(=O)Nc1cccc(N2C(=O)N(Cc3ccc(F)cc3F)Cc3cnc(Nc4cn(C)nc4Cl)nc32)c1` [Compound 61, (E)-N-(3-(7-((3-chloro-1-methyl-1H-pyrazol-4-yl)amino)-3-(2,4-difluorobenzyl)-2-oxo-3,4-dihydropyrimido[4,5-d]pyrimidin-1(2H)-yl)phenyl)-4-(dimethylamino)but-2-enamide], the GI50 came to 0.058 µM in assay [1] and 0.105 µM in assay [2]. Moreover, the half-maximal inhibitory concentration (IC50) in the assay with A431 cells (setting [4]) was at least 10000 nM.

On to `COc1cc(CN2Cc3cnc(Nc4cn(C)nc4Cl)nc3N(c3cccc(NC(=O)/C=C/CN(C)C)c3)C2=O)ccn1` [Compound 62, (E)-N-(3-(7-((3-chloro-1-methyl-1H-pyrazol-4-yl)amino)-3-((2-methoxypyridin-4-yl)methyl)-2-oxo-3,4-dihydropyrimido[4,5-d]pyrimidin-1(2H)-yl)phenyl)-4-(dimethylamino)but-2-enamide], for which the GI50 in assay [1] was determined as 2.26 µM; in assay [2], 5.48 µM. In the assay with A431 cells (setting [4]), the IC50 is at least 10000 nM.

On to `CN(C)C/C=C/C(=O)N(C)c1cccc(N2C(=O)N(Cc3ccccc3)Cc3cnc(Nc4cn(C)nc4Cl)nc32)c1` [Compound 63, (E)-N-(3-(3-benzyl-7-((3-chloro-1-methyl-1H-pyrazol-4-yl)amino)-2-oxo-3,4-dihydropyrimido[4,5-d]pyrimidin-1(2H)-yl)phenyl)-4-(dimethylamino)-N-methylbut-2-enamide], for which the GI50 in assay [1] stood at 0.532 µM; in assay [2] it was 1.46 µM. Besides, the IC50 in the assay on A431 cells (setting [4]) is at least 10000 nM.

Take `CN(C)C/C=C/C(=O)Nc1cccc(N2C(=O)N(Cc3ccccc3)Cc3cnc(Nc4cn(C)nc4Cl)cc32)c1` [Compound 64, (E)-N-(3-(3-benzyl-7-((3-chloro-1-methyl-1H-pyrazol-4-yl)amino)-2-oxo-3,4-dihydropyrido[4,3-d]pyrimidin-1(2H)-yl)phenyl)-4-(dimethylamino)but-2-enamide]: the GI50 turned out to be 0.809 µM in assay [1] and 1.03 µM in assay [2]. In addition, in the assay with A431 cells (setting [4]), the IC50 is at least 10000 nM.

Consider `COC/C=C/C(=O)Nc1cccc(N2C(=O)N(Cc3ccccc3)Cc3cnc(Nc4cn(C)nc4Cl)nc32)c1` [Compound 76, (E)-N-(3-(3-benzyl-7-((3-chloro-1-methyl-1H-pyrazol-4-yl)amino)-2-oxo-3,4-dihydropyrimido[4,5-d]pyrimidin-1(2H)-yl)phenyl)-4-methoxybut-2-enamide], for which the values for the GI50 in assay [1] and in assay [2] were 0.336 µM and 0.342 µM, respectively. In addition, in the assay with A431 cells (setting [4]), the IC50 is at least 10000 nM.

Consider `C=CC(=O)Nc1cc(N2C(=O)N(Cc3ccccc3)Cc3cnc(Nc4cn(C)nc4Cl)nc32)ccc1OC` [Compound 77, N-(5-(3-benzyl-7-((3-chloro-1-methyl-1H-pyrazol-4-yl)amino)-2-oxo-3,4-dihydropyrimido[4,5-d]pyrimidin-1(2H)-yl)-2-methoxyphenyl)acrylamide], for which the GI50 is at least 10 µM in assay [1] and 9.13 µM in assay [2]. The concentration for half-maximal inhibition (IC50) in the assay on A431 cells (setting [4]) was at least 10000 nM.

For the compound `C=CC(=O)Nc1cc(N2C(=O)N(Cc3ccccc3)Cc3cnc(Nc4cn(C)nc4Cl)nc32)ccc1OC(F)(F)F` [Compound 78, N-(5-(3-benzyl-7-((3-chloro-1-methyl-1H-pyrazol-4-yl)amino)-2-oxo-3,4-dihydropyrimido[4,5-d]pyrimidin-1(2H)-yl)-2-(trifluoromethoxy)phenyl)acrylamide], the GI50 in assay [1] came out at 8.37 µM; in assay [2], 8.78 µM. Also, the IC50 in the assay on A431 cells (setting [4]) came out at 4180 nM.

Consider `CN(C)C/C=C/C(=O)Nc1ccc(Cl)c(N2C(=O)N(Cc3ccccc3)Cc3cnc(Nc4cn(C)nc4Cl)nc32)c1` [Compound 86, (E)-N-(3-(3-benzyl-7-((3-chloro-1-methyl-1H-pyrazol-4-yl)amino)-2-oxo-3,4-dihydropyrimido[4,5-d]pyrimidin-1(2H)-yl)-4-chlorophenyl)-4-(dimethylamino)but-2-enamide], for which the GI50 was found to be 0.694 µM in assay [1] and 0.9 µM in assay [2]. In addition, the half-inhibitory concentration (IC50) in the assay on A431 cells (setting [4]) worked out at 5440 nM.

Source of the values: patent US20230027026A1, “FUSED PYRIMIDINE COMPOUNDS, COMPOSITIONS AND MEDICINAL APPLICATIONS THEREOF” (JUBILANT BIOSYS LIMITED, priority 2019, published 2023).
